Laboratory results published in ChEMBL document CHEMBL5726312, “TYK2 inhibitors and uses thereof” (2019).

Each compound was assayed against Non-receptor tyrosine-protein kinase TYK2 (Homo sapiens, UniProt P29597) (assay: Tyk2 & JAK2 Caliper Assay: The caliper machine employs an off chip mobility shift assay to detect phosphorylated peptide substrates from kinase assays, using microfluidics technology. The assays are carried out at ATP concentration equivalent to the ATP Km, and at 1 mM ATP. Compounds are serially diluted in DMSO then further diluted in assay buffer (25 mM HEPES, pH 7.5, 0.01% Brij-35, 0.01% Triton, 0.5 mM EGTA). 5 ul of diluted compound was added into wells first, then 10 ul of enzyme mix was added into wells, followed by 10 uL of substrate mix (peptide and ATP in 10 mM MgCl2) to start reaction. Reaction was incubated at 28° C. for 25 min and then added 25 ul stop buffer (100 mM HEPES, 0.015% Brij-35, 50 mM EDTA), followed by reading with Caliper. JAK2 at 1 nM final concentration and TYK2 at 9.75 nM are from Carna, and substrates used are ATP at 20 and 16 uM, respectively. JAK2 assay uses peptide 22 and TYK2 uses peptide 30 (Caliper), each at 3 uM.).
Sequence of Non-receptor tyrosine-protein kinase TYK2 (P29597 whole entry): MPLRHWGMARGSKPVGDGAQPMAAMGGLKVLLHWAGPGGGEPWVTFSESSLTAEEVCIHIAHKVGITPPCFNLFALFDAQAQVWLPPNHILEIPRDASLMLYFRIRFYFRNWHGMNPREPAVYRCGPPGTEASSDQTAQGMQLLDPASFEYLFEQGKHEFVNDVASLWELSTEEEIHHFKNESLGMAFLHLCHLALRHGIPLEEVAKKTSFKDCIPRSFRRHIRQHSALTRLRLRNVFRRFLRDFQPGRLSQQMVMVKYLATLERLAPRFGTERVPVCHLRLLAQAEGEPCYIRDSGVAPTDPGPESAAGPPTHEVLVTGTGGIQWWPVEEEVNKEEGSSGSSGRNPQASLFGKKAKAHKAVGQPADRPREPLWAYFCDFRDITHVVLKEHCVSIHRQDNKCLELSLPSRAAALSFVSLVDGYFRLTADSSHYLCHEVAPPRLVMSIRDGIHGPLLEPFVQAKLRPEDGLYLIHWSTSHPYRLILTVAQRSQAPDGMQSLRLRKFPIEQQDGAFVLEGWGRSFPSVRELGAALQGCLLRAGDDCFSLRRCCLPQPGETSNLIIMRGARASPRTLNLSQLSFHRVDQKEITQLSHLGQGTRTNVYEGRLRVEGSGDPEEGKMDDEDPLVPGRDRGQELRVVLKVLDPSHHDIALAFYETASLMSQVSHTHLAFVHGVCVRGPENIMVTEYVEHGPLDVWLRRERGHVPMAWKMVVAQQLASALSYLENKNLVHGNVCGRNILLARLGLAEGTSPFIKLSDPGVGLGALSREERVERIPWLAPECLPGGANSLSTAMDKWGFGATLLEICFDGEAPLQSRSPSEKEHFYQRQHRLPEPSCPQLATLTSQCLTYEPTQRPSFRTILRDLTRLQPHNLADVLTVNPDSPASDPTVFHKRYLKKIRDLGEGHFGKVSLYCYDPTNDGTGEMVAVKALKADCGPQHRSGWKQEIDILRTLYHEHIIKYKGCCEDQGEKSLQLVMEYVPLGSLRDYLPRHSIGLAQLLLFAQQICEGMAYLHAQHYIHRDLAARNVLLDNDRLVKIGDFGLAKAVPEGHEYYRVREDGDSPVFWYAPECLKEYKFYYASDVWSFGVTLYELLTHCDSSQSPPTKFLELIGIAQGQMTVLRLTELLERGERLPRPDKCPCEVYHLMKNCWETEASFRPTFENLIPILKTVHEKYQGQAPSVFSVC

| SMILES | Ki [nM] |
| --- | --- |
| CC1CC(O)CC(C)N1c1ccc(Nc2cc(-c3c(F)cccc3F)nc3c2C(=O)NC3)nc1 (stereo not drawn) | < 10 |
| C[C@@H]1CCC[C@@H](C)N1c1ccc(Nc2cc(-c3c(F)cccc3F)nc3c2C(=O)NC3)nc1 | < 10 |
| O=C1NCc2nc(-c3c(F)cccc3F)c(F)c(Nc3ccc(N4CCOCC4)cn3)c21 | < 10 |
| O=C(Cc1ccc(Nc2nc(-c3c(F)cccc3F)nc3c2C(=O)NC3)cc1)NC1CNC1 | < 10 |
| N#Cc1cccc(F)c1-c1cc(Nc2ccc(C(=O)N3CCOCC3)cc2)c2c(n1)CNC2=O | < 10 |
| O=C1NCc2nc(-c3c(F)cccc3F)cc(Nc3ccc(N4CCC5(CC5)C4)cn3)c21 | < 10 |
| O=C1NCc2nc(-c3c(F)cccc3F)cc(Nc3ccc(C(=O)N4CCOCC4)cn3)c21 | < 10 |
| COc1ccc(Nc2cc(-c3c(F)cccc3F)nc3c2C(=O)N[C@@H]3C)nc1 | < 10 |
| O=C1NCc2nc(-c3c(F)cccc3F)cc(Nc3ccc(N4CC(F)(F)C4)cn3)c21 | < 10 |
| C[C@@H]1COC[C@@H](C)N1C(=O)c1ccc(Nc2cc(-c3c(F)cccc3F)nc3c2C(=O)NC3)cc1 | < 10 |
| C[C@@H]1COCCN1c1ccc(Nc2cc(-c3c(F)cccc3F)nc3c2C(=O)NC3)nc1 | < 10 |
| CC[C@]1(c2ccc(Nc3nc(-c4c(F)cccc4F)nc4c3C(=O)NC4)cc2)CCNC1=O | < 10 |
| CN1CCN(C)[C@](C)(c2ccc(Nc3nc(-c4c(F)cccc4F)nc4c3C(=O)NC4)cc2)C1=O | < 10 |
| CC(C)N1CCN(c2ccc(Nc3cc(-c4c(F)cccc4F)nc4c3C(=O)NC4)nc2)C(=O)C1 | < 10 |
| COc1ccc(Nc2cc(-c3c(F)cccc3C#N)nc3c2C(=O)NC3)nc1 | < 10 |
| CC1(C)OCCN(c2ccc(Nc3cc(-c4c(F)cccc4F)nc4c3C(=O)NC4)nc2)C1=O | < 10 |
| CC1(C)CN(c2ccc(Nc3cc(-c4c(F)cccc4F)nc4c3C(=O)NC4)nc2)CC[C@@H]1O | < 10 |
| O=C1NCc2nc(-c3c(F)cccc3F)cc(Nc3ccc(N4CCCOCC4)cn3)c21 | < 10 |
| O=C1NCc2nc(-c3c(F)cccc3F)cc(Nc3ccc(N4CCCC(O)C4)cn3)c21 (stereo not drawn) | < 10 |
| CCNC(=O)c1ccc(Nc2cc(-c3c(F)cccc3Cl)nc3c2C(=O)NC3)nc1 | < 10 |

| SMILES | Ki [nM] |
| --- | --- |
| O=C1NCc2nc(-c3c(F)cccc3F)cc(Nc3ccc(N4CCOCC4)nc3)c21 | < 10 |
| CCNC(=O)Cc1ncc(Nc2nc(-c3c(F)cccc3F)nc3c2C(=O)NC3)cn1 | > 1000 |
| O=C1NCc2nc(-c3c(F)cccc3F)cc(Nc3ccc(F)cn3)c21 | < 10 |
| O=C1NCc2nc(-c3c(F)cccc3F)cc(Nc3ccc(NS(=O)(=O)C(F)F)cn3)c21 | < 10 |
| O=C1NCc2nc(-c3c(F)cccc3F)cc(Nc3ccc(N4CCN(CCC(F)(F)F)CC4)cn3)c21 | < 10 |
| COCCNC(=O)c1ccc(Nc2cc(-c3c(F)cccc3F)nc3c2C(=O)NC3)nc1 | < 10 |
| O=C1NCc2nc(-c3c(F)cccc3F)cc(Nc3ccc(N4CCC[C@H](O)C4)cn3)c21 | < 10 |
| CCNC(=O)c1cnc(Nc2cc(-c3c(F)cccc3F)nc3c2C(=O)NC3)cc1F | < 10 |
| CCNC(=O)c1ccc(Nc2nc(-c3c(F)cccc3F)nc3c2C(=O)NC3)cc1 | < 10 |
| CCNC(=O)c1ccc(Nc2cc(-c3c(F)cccc3F)nc3c2C(=O)NC3)cn1 | < 10 |
| CC1(O)CCN(C(=O)c2ccc(Nc3cc(-c4c(F)cccc4F)nc4c3C(=O)NC4)cc2)CC1 | < 10 |
| CN(c1ccc(Nc2cc(-c3c(F)cccc3F)nc3c2C(=O)NC3)nc1)C(C)(C)C | < 10 |
| CC(C)N1CCN(C(=O)c2ccc(Nc3cc(-c4c(F)cccc4F)nc4c3C(=O)NC4)cc2)CC1 | < 10 |
| CCNC(=O)c1ccc(Nc2cc(-c3c(F)cccc3C#N)nc3c2C(=O)NC3)nc1 | < 10 |
| O=C1NCc2nc(-c3c(F)cccc3F)cc(Nc3ccc(C4(O)CCOCC4)cn3)c21 | < 10 |
| CC1(O)CN(c2ccc(Nc3cc(-c4c(F)cccc4F)nc4c3C(=O)NC4)nc2)C1 | < 10 |
| O=C1NCc2nc(-c3c(F)cccc3F)cc(Nc3ccc(C(=O)N4CCC(F)(F)CC4)cc3)c21 | < 10 |
| CCN(CC)C(=O)c1ccc(Nc2cc(-c3c(F)cccc3F)nc3c2C(=O)NC3)cc1 | < 10 |
| CC1COCCN1c1ccc(Nc2cc(-c3c(F)cccc3F)nc3c2C(=O)NC3)nc1 (stereo not drawn) | < 10 |
| O=C1NCc2nc(-c3c(F)cccc3F)cc(Nc3ccc(N4CCOCC4=O)cn3)c21 | < 10 |

| SMILES | Ki [nM] |
| --- | --- |
| CC(C)(C)Nc1ccc(Nc2cc(-c3c(F)cccc3F)nc3c2C(=O)NC3)nc1 | < 10 |
| CC(C)N1CCN(c2ccc(Nc3cc(-c4c(F)cccc4F)nc4c3C(=O)NC4)nc2)CC1 | < 10 |
| CC[C@@]1(c2ccc(Nc3nc(-c4c(F)cccc4F)nc4c3C(=O)NC4)cc2)CCNC1=O | < 10 |
| O=C1NCc2nc(-c3c(F)cccc3F)cc(Nc3ccc(N4CCN(CC(F)F)CC4)cn3)c21 | < 10 |
| C[C@@H]1CCC[C@H](C)N1c1ccc(Nc2cc(-c3c(F)cccc3F)nc3c2C(=O)NC3)nc1 | < 10 |
| O=C1NCc2nc(-c3c(F)cccc3F)cc(Nc3ccc(F)cc3)c21 | < 10 |
| CC1(C)CCC(=O)N1c1ccc(Nc2cc(-c3c(F)cccc3F)nc3c2C(=O)NC3)nc1 | < 10 |
| O=C1NCc2nc(-c3c(F)cccc3F)cc(Nc3ccc(N4C5COCC4C5)cn3)c21 | < 10 |
| CC1(c2ccc(Nc3nc(-c4c(F)cccc4F)nc4c3C(=O)NC4)cc2)COC1 | < 10 |
| CC1(C)CCN(c2ccc(Nc3cc(-c4c(F)cccc4F)nc4c3C(=O)NC4)nc2)CC1 | < 10 |
| COC(=O)C(C)c1ccc(Nc2nc(-c3c(F)cccc3F)nc3c2C(=O)NC3)cc1 (stereo not drawn) | < 10 |
| CC1(C)CCCC(=O)N1c1ccc(Nc2cc(-c3c(F)cccc3F)nc3c2C(=O)NC3)nc1 | < 10 |
| Cc1ccc(Nc2nc(-c3c(F)cccc3F)nc3c2C(=O)NC3)cc1 | < 10 |
| O=C1NCc2nc(-c3c(F)cccc3F)cc(Nc3ccc(N4CCCC4)cn3)c21 | < 10 |
| O=C1NCc2nc(-c3c(F)cccc3F)cc(Nc3ccc(C(=O)N4CCCCC4)cc3)c21 | < 10 |
| O=C1NCc2nc(-c3c(F)cccc3F)cc(Nc3ccc(C4=CCOCC4)cn3)c21 | < 10 |
| CC(C)Oc1ccc(Nc2nc(-c3c(F)cccc3F)nc3c2C(=O)NC3)cc1 | < 10 |
| C[C@H]1COC[C@H](C)N1c1ccc(Nc2cc(-c3c(F)cccc3F)nc3c2C(=O)NC3)nc1 | < 10 |
